Several values for one entry are separate records, joined by “and”; a condition that tells them apart may be missing. Equal entries are not always repeated.
Columns and labels:
blue sharks = assay: Tonic immobility, syringe delivery to the mouth of blue sharks; format: in vivo, Prionace glauca; details: two blue sharks, two assays each, 20 mL or less
Source text: The sharks had been captured on rod and reel and were held in tonic immobility along a boat.

[1] = tested on: captive Cobia and Yellowfin Tuna; assay: Feeding behavior of captive fish in the presence of aldehydes; format: in vivo
Source text: Similarly, teleost reef fish, such as Triggerfish and Snappers, have been observed feeding and swimming in a cloud of shark-repelling aldehydes. This behavior is presumed to result from the lack of aldehyde-receptors in the fishes' gustatory system.

nurse sharks = assay: Tonic immobility, Bite Assay; format: in vivo, C. cirratum
Description: One bioassay used to observe and measure flight response is the tonic immobility test. Tonic immobility is a state of paralysis that typically occurs when a shark is subject to inversion of its body along the longitudinal axis. This state is called “tonic,” and the shark can remain in this state for up to 15 minutes thereby allowing researchers to observe effects of chemical repellents. The “tonic” state of the shark is first established by releasing seawater in proximity to the “tonic” shark with the same delivery instrument and at the same distance as a “test” repellent compound will be released. Some controls are released with a high flow rate (30 mL/sec) in order to establish that sharks are not awakened by a jet of fluid over their noses. Once behavioral controls are established, a compound or composition that may have a repelling effect is delivered to the shark. […] Using this tonic immobility bioassay researches can quantify the strength of a repellent effect. […]
In Bite Assays, a dose of typically less than 5 mL of 3-methylbutanal was presented directly into the shark's mouth using a pipette. […] Because the delivery was directly into the shark's mouth and responses were generally observed immediately upon delivery, time to response was not recorded.

[2] = tested on: juvenile lemon and nurse sharks; assay: Tonic immobility, Micropipette Assay, summary over species; format: in vivo; details: juvenile lemon and nurse sharks
Description: (§1) One bioassay used to observe and measure flight response is the tonic immobility test. Tonic immobility is a state of paralysis that typically occurs when a shark is subject to inversion of its body along the longitudinal axis. This state is called “tonic,” and the shark can remain in this state for up to 15 minutes thereby allowing researchers to observe effects of chemical repellents. The “tonic” state of the shark is first established by releasing seawater in proximity to the “tonic” shark with the same delivery instrument and at the same distance as a “test” repellent compound will be released. Some controls are released with a high flow rate (30 mL/sec) in order to establish that sharks are not awakened by a jet of fluid over their noses. Once behavioral controls are established, a compound or composition that may have a repelling effect is delivered to the shark. If the compound or composition engenders a flight response, the shark will awaken from the tonic state and rapidly attempt to flee the delivered repellent. Using this tonic immobility bioassay researches can quantify the strength of a repellent effect.
A fourth method of delivery was called the “Micropipette Assay” method of delivery. In this method, a very small dose (fraction of a mL) of a test substance was delivered directly into a shark's mouth. […] A response, such as a cough or other notable action of the shark, was usually noted when effective gustatory repellents were delivered directly into a shark's mouth while in tonic immobility.
The Micropipette Assay method has not proven to be a particularly effective method of assaying for a flight response in elasmobranchs. The Micropipette Assay method is, nevertheless, an excellent method for specifying that a gustatory response has occurred. It is effective for specifying a gustatory response because the micropipette delivery method allows direct delivery of an entire bolus of test substance into the mouth of the shark being tested.
An oral dose of no more than 400 microliters was then delivered by micropipette into the mouth of a juvenile nurse shark. Tonic immobility was terminated. For each derivative of butyric acid and each naturally occurring acid listed in Table 9, a first micropipette assay was performed on a juvenile lemon shark with no more than 100 microliters of test acid in an oral dose. A second micropipette assay was then performed on a juvenile nurse shark with no more than 400 microliters of test acid in an oral dose. In each test, tonic immobility was terminated.
In a first set of studies on the effectiveness of carboxylic acids as elasmobranch repellents, each tested substance was subjected to the following protocol. […] An oral dose of no more than 400 microliters was then delivered by micropipette into the mouth of a juvenile nurse shark. Tonic immobility was terminated. […] The data evidences the gustatory repelling activity of carboxylic acids.

[3] = tested on: sharks (lemon, nurse, blacktip, tiger, blacknose pooled); assay: Tonic immobility, Syringe 3/5/10 Assay, summary over species; format: in vivo
Description: as §1
In the tonic immobility studies disclosed herein, several different methods were employed for delivery of repelling compounds. A first method for delivery of chemical repellent in tonic immobility studies employed a “Syringe 3/5/10 Assay” method. The “Syringe 3/5/10 Assay” method is so named because a test repellent is delivered to a shark from a distance of about “3” inches with a bolus of about “5” mL with a response to the test repellent considered positive if the shark reacts with a change in behavior within less than about “10” seconds from the time of delivery.
The “3/5/10 Syringe Assay” as employed herein delivered a dose of 5-6 mL of a test chemical repellent from a syringe fixed with a needle having a gauge of about 22 from a distance at least 3 inches in front of a shark. Because the test chemical repellent was delivered at a distance from the shark's nares and mouth, a cloud of test chemical repellent was dispersed over the shark within the water column. The dispersed test repellent was subject to water current direction, dispersion and dilution. As a result, a flight response within 10 seconds was considered a positive repellency response. […] Time from delivery to response is related to the size of the bolus delivered from the syringe, distance of the shark from the syringe and water current.
In Syringe 3/5/10 Assays, 5-6 mL of 3-methylbutanal was delivered at least 3 inches in front of the shark's mouth. A cloud of the repellent dispersed over the shark within the water column. […] As noted above, because the dispersion of the chemical repellent upon delivery is affected by volume of repellent, water current, and other factors, the time between delivery and response was not correlatable with the potency of the repellent.

[4] = tested on: sharks (lemon, nurse, tiger pooled); assay: Tonic immobility, Hd Syringe Assay, summary over species; format: in vivo; details: species pooled
Procedure, shortened: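 Sharks held in tonic immobility by inversion, with seawater sham releases (some at 30 mL/sec) as controls. 3-methylbutanal released slowly by 3 mL syringe (22 gauge) within 3 inches of mouth and nares. Waking/flight response recorded, with time to response where measurable.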

With `CC(C)CC=O` [3-methylbutanal] the “response to direct delivery to the mouth” value (blue sharks) was “behavioral response (classic mouth-agape response)”, the “feeding behavior of fish in the presence of the aldehyde” value [1] was “slightly increased” and the “Bite Y (termination of tonic immobility), trials of trials” value (nurse sharks) was “each resulting in termination of tonic immobility and 2/2”. The “Micropipette assays with a behavioral response within tonic immobility” value [2] was “ten”, the “Micropipette assays with a gustatory response (termination or behavior change)” value [2] was 16 of 20 and fifteen and the “Micropipette assays with no response” value [2] was “five”. For the same molecule, the “Micropipette Y (termination of tonic immobility), trials of trials” value ([2]; oral dose) was “five”, the “Syringe 3/5/10 Y (termination of tonic immobility), trials of trials” value [3] was 7/7 and the “Syringe 3/5/10 Y, percent of trials” value [3] was 100%. The “Hd-Syringe N (no response), trials of trials” value [4] was “one and 1/27”, the “Hd-Syringe R (behavior response within tonic immobility), trials of trials” value [4] was 6/27 and the “Hd-Syringe R, percent of trials” value [4] was 22%. For the same molecule, the “Hd-Syringe Y (termination of tonic immobility), trials of trials” value [4] was 20/27 and the “Hd-Syringe Y, percent of trials” value [4] was 74%.

Source: patent publication US9456589B2, “Elasmobranch-repelling compounds and methods of use” (priority 2005, dated 2016)
